Assay [1] relates to gel-filtered human thrombocytes. Nature of the assay: Inhibition of the aggregation of gel-filtered human thrombocytes following stimulation with ADP or thrombin (Test method 1). In kind it is cell-based. Conditions: Homo sapiens, 1 mg/ml fibrinogen, 37° C., GFP from 2-4 donors. Here is the method: As a functional test, measurement is made of the inhibition of the aggregation of gel-filtered human thrombocytes, following stimulation with ADP or thrombin, by the compounds according to the invention.
For this purpose, human thrombocytes were isolated from platelet-rich plasma (PRP) by gel filtration on Sepharose 2 B. The resulting suspension of gel-filtered platelets (GFP), which contained 3×10^8 platelets/ml, was activated in the presence of 1 mg/ml of fibrinogen either with 10 μM ADP or with 0.1 U/ml thrombin, and stirred in an aggregometer (PAP 4, Biodata, Hatboro, Penna., USA) at 37° C. and at 1000 revolutions per minute. The maximum increase in the translucency is taken as a measure of the aggregation. The test substances were added to the GFP at 37° C. and 2 min before activating with ADP or thrombin.

Assay [2] concerns the target T1, isolated fibrinogen receptor (glycoprotein IIb/IIIa) (Homo sapiens, UniProt P05106+P08514).
T1 construct: isolated from human thrombocytes and immobilized in microtitre plates; from tissue; host or cells: human thrombocytes (platelets), receptor isolated
Nature of the assay: Inhibition of 125I-fibrinogen binding to the isolated, immobilized receptor (glycoprotein IIb/IIIa) (Test method 3). Conditions: isolated receptor immobilized in microtitre plates; read-out: Ki, inhibition of the binding of 125I-fibrinogen, ADP-stimulated. How it is done:
The inhibition of the binding of fibrinogen to its receptor (glycoprotein IIb/IIIa) which is brought about by the compounds according to the invention is tested on the isolated receptor, which was isolated from human thrombocytes and immobilized in microtitre plates.

Where [3] appears, read: ADP-stimulated (10 μM ADP), read-out: IC50, inhibition of thrombocyte aggregation, ADP-stimulated.
Where [4] appears, read: Thrombin-stimulated (0.1 U/ml thrombin), read-out: IC50, inhibition of thrombocyte aggregation, Thrombin-stimulated.

Structures can show the parent of a compound that is named as a salt. Where two headings read alike, the source gives them in different places.

The record followed here is patent publication US6191282A, “Substituted 5-membered ring heterocycles comprising a bicyclic or tricyclic group their preparation and their use” (Hoechst Marion Roussel, priority 1993, dated 2001).

T1 sequence (P08514 32-887 limits assumed): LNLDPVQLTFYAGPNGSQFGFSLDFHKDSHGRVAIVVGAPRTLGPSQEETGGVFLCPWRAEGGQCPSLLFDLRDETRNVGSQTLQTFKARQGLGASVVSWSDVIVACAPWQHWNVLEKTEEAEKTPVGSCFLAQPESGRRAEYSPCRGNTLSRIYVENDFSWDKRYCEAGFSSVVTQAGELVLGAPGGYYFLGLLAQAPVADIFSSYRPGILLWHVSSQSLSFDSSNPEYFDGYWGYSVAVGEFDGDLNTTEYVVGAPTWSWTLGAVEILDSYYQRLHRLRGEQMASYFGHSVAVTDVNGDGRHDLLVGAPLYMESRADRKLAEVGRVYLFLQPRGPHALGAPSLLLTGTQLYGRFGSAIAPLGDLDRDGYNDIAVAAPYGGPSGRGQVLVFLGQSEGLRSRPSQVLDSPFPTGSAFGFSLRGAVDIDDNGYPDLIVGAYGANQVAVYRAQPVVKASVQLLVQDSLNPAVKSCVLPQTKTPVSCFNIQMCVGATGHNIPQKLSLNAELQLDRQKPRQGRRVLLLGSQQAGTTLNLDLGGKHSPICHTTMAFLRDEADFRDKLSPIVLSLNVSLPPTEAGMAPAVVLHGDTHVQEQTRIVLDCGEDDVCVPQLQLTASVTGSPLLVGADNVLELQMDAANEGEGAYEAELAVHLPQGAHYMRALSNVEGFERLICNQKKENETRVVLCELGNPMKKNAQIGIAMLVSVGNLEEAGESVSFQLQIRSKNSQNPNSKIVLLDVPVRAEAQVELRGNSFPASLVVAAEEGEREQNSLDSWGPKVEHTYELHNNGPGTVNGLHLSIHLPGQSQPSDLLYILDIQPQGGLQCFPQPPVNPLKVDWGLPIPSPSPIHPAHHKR
T1 sequence (P08514 891-1039 partner limits assumed): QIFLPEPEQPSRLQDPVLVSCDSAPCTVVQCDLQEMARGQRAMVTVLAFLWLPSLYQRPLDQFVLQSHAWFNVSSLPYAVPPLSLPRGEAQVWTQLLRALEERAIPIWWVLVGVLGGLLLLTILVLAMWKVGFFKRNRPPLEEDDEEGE
T1 sequence (P05106 27-788): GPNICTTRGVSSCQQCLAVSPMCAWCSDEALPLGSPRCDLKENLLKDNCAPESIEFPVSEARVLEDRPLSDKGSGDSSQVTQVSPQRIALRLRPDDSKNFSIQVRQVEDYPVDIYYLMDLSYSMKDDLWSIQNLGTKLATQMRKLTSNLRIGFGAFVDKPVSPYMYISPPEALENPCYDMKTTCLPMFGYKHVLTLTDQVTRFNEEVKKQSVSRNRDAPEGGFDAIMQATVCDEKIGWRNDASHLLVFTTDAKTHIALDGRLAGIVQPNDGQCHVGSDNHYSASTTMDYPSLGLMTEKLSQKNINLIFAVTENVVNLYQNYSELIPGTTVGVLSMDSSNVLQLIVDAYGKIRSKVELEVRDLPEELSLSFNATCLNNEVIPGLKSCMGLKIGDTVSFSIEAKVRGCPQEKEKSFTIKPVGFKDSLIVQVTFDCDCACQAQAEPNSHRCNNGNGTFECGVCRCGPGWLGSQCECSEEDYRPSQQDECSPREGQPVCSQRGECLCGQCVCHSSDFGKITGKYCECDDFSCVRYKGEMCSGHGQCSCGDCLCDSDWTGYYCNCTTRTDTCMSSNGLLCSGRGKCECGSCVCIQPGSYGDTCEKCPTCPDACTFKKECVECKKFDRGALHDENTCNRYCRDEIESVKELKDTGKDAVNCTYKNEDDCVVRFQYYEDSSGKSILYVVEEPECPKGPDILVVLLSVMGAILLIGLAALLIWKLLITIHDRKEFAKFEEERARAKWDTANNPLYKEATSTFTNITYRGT

Regarding `N=C(N)c1ccc(C2(Cc3ccccc3)NC(=O)N(CC(=O)N[C@@H](CC(=O)O)C(=O)N[C@H](C(=O)O)c3ccccc3)C2=O)cc1` (stereo partly drawn) [Example 28, ((R,S)-4-(4-(Aminoiminomethyl)phenyl)-4-benyl-2,5-dioxoimidazolidin-1-yl)acetyl-L-aspartyl-L-phenylglycine], the IC50 in assay [1] (setting [3]) worked out at 25 nM; in assay [1] (setting [4]) it was 40 nM. Also, the Ki in assay [2] amounted to 0.078 nM.
On the same counts, the results for `N=C(N)c1ccc(C2(C3CC3)NC(=O)N(CC(=O)N[C@@H](CC(=O)O)C(=O)N[C@H](C(=O)O)c3ccccc3)C2=O)cc1` (stereo partly drawn) [Example 26, ((R,S)-4-(4-(Aminoiminomethyl)phenyl)-4-cyclopropyl-2,5-dioxoimidazolidin-1-yl)acetyl-L-aspartyl-L-phenylglycine] are 20 nM, 40 nM and 0.117 nM.
On the same counts, the results for `CC1(c2ccc(C(=N)N)cc2)NC(=O)N(CC(=O)NC(CC(=O)O)c2ccc(C(=O)O)cc2)C1=O` (racemic) [Example 40, (R,S)-3-(((R,S)-4-(4-(Aminoiminomethyl)phenyl)-4-methyl-2,5-dioxoimidazolidin-1-yl)acetylamino)-3-(4-hydroxycarbonylphenyl)propionic acid] are 400 nM, 250 nM and 1.99 nM.
For the molecule `CC1(c2ccc(C(=N)N)cc2)NC(=O)N(CC(=O)NC(CS(=O)(=O)NC(=O)Nc2ccccc2)C(=O)OCc2ccccc2)C1=O` (racemic) [Example 34, 2-((R,S)-4-(4-Aminoiminomethyl)phenyl)-4-methyl-2,5-dioxoimidazolidin-1-yl)-N-((R,S)-1-benzyloxycarbonyl-2-(3-phenylureidosulphonyl)ethyl)acetamide], the half-maximal inhibitory concentration (IC50) in assay [1] (setting [3]) worked out at 2500 nM; in assay [1] (setting [4]) it was 1500 nM.
For `CC(C)(C)C1(c2ccc(C(=N)N)cc2)NC(=O)N(CC(=O)N[C@@H](CC(=O)O)C(=O)N[C@H](C(=O)O)c2ccccc2)C1=O` (stereo partly drawn) [Example 29], in that order: 50 nM and 40 nM.
Turning to `CC1(c2ccc(C(=N)N)cc2)NC(=O)N(CC(=O)N[C@@H](CC(=O)O)C(=O)NC23CC4CC(CC(C4)C2)C3)C1=O` (stereo partly drawn) [Example 68, (2-((R,S)-4-(4-(aminoiminomethyl)phenyl)-4-methyl-2,5-dioxoimidazolidin-1-yl)acetyl)-L-aspartyl-1-adamantylamide], the IC50 came to 50 nM in assay [1] (setting [3]) and 45 nM in assay [1] (setting [4]).
On the same counts, the results for `CC1(c2ccc(C(=N)N)cc2)NC(=O)N(CC(=O)NC(CC(=O)O)C2CCCCC2)C1=O` (racemic) [Example 49, (R,S)-3-(((R,S)-4-(4-(Aminoiminomethyl)phenyl)-4-methyl-2,5-dioxoimidazolidin-1-yl)acetylamino)-3-cyclohexylpropionic acid] are 600 nM and 200 nM.
On the same counts, the results for `CC1(c2ccc(NC(=N)N)cc2)NC(=O)N(CC(=O)N[C@@H](CC(=O)O)C(=O)N[C@H](C(=O)O)c2ccccc2)C1=O` (stereo partly drawn) [Example 10, ((R,S)-4-(4-Guanidinophenyl)-4-methyl-2,5-dioxoimidazolidin-1-yl)acetyl-L-aspartyl-L-phenylglycine] are 150 nM and 60 nM.
Turning to `CC1(c2ccc(CN)cc2)NC(=O)N(CC(=O)N[C@@H](CC(=O)O)C(=O)N[C@H](C(=O)O)c2ccccc2)C1=O` (stereo partly drawn) [Example 8, ((R,S)-4-(4-(Aminomethyl)phenyl)-4-methyl-2,5-dioxoimidazolidin-1-yl)acetyl-L-aspartyl-L-phenylglycine], the IC50 in assay [1] (setting [3]) turned out to be 150 nM; in assay [1] (setting [4]) it was 100 nM.
For `CCCCCC(=O)NC(CNC(=O)CN1C(=O)NC(C)(c2ccc(C(=N)N)cc2)C1=O)C(=O)O` (racemic) [Example 30, (R,S)-3-(((R,S)-4-(4-(Aminoiminomethyl)phenyl)-4-methyl-2,5-dioxoimidazolidin-1-yl)acetylamino)-2-pentylcarbonylaminopropionic acid], in that order: 500 nM and 400 nM.
Turning to `COc1ccc(C(CC(=O)O)NC(=O)CN2C(=O)NC(C)(c3ccc(C(=N)N)cc3)C2=O)cc1O` (racemic) [Example 35, (R,S)-3-(((R,S)-4-(4-(Aminoiminomethyl)phenyl)-4-methyl-2,5-dioxoimidazolidin-1-yl)acetylamino)-3-(3-hydroxy-4-methoxyphenyl)propionic acid], the IC50 in assay [1] (setting [3]) was determined as 100 nM; in assay [1] (setting [4]), 300 nM.
As to `CC1(c2ccc(C(=N)N)cc2)NC(=O)N(CC(=O)NC(CC(=O)O)c2cccc(OCc3ccccc3)c2)C1=O` (racemic) [Example 41, (R,S)-3-(((R,S)-4-(4-(Aminoiminomethyl)phenyl)-4-methyl-2,5-dioxoimidazolidin-1-yl)acetylamino)-3-(3-benzyloxyphenyl)propionic acid], the concentration for half-maximal inhibition (IC50) in assay [1] (setting [3]) was found to be 100 nM; in assay [1] (setting [4]), 150 nM.
On the same counts, the results for `CC1(c2ccc(C(=N)N)cc2)NC(=O)N(CC(=O)NC[C@H](N)C(=O)O)C1=O` (stereo partly drawn) [Example 7, 2-Amino-3-(((R,S)-4-(4-(aminoiminomethyl)-phenyl)-4-methyl-2,5-dioxoimidazolidin-1-yl)acetylamino)propionic acid hydrochloride] are 300 nM and 300 nM.
On the same counts, the results for `CC1(c2ccc(C(=N)N)cc2)NC(=O)N(CC(=O)NC(CC(=O)O)c2cccc(Oc3ccccc3)c2)C1=O` (racemic) [Example 43, (R,S)-3-(((R,S)-4-(4-(Aminoiminomethyl)phenyl)-4-methyl-2,5-dioxoimidazolidin-1-yl)acetylamino)-3-(3-phenoxyphenyl)propionic acid] are 500 nM and 500 nM.
On the same counts, the results for `CCCCS(=O)(=O)NC(CNC(=O)CN1C(=O)NC(C)(c2ccc(C(=N)N)cc2)C1=O)C(=O)O` (racemic) [Example 32, (R,S)-3-(((R,S)-4-(4-(Aminoiminomethyl)phenyl)-4-methyl-2,5-dioxoimidazolidin-1-yl)acetylamino)-2-butylsulphonylaminopropionic acid] are 200 nM and 150 nM.
`CC1(c2ccc(C(=N)N)cc2)NC(=O)N(CC(=O)NC(CC(=O)O)c2cccnc2)C1=O` (racemic) [Example 47, (R,S)-3-(((R,S)-4-(4-(Aminoiminomethyl)phenyl)-4-methyl-2,5-dioxoimidazolidin-1-yl)acetylamino)-3-(3-pyridyl)propionic acid]: the IC50 in assay [1] (setting [3]) stood at 100 nM; in assay [1] (setting [4]) it was 150 nM.
For `CC1(c2ccc(C(=N)N)cc2)NC(=O)N(CC(=O)NC[C@H](NC(=O)OCc2ccccc2)C(=O)O)C1=O` (stereo partly drawn) [Example 6, 3-(((R,S)-4-(4-(Aminoiminomethyl)phenyl)-4-methyl-2,5-dioxoimidazolidin-1-yl)acetylamino)-2-benzyloxycarbonylaminopropionic acid], in that order: 2500 nM and 800 nM.
On the same counts, the results for `CC1(c2ccc(C(=N)N)cc2)NC(=O)N(CC(=O)NC(CC(=O)O)c2cccc3ccccc23)C1=O` (racemic) [Example 38, (R,S)-3-(((R,S)-4-(4-(Aminoiminomethyl)phenyl)-4-methyl-2,5-dioxoimidazolidin-1-yl)acetylamino)-3-(1-naphthyl)propionic acid] are 300 nM and 350 nM.

In general, IC50 refers to the concentration that gives 50% inhibition. Usually Ki stands for the equilibrium dissociation constant of an inhibitor or competing ligand from its target.
